The source of these data is ChEMBL document CHEMBL1147246, “Flavonoids from Dalbergia louvelii and their antiplasmodial activity” (J Nat Prod, 2003).

Calls of active or inactive are those of the source. The calls are words filed in the database; no cut-off is given here.

For the test, the system named is Plasmodium falciparum. The test can be described thus: Antiplasmodial activity after 18 hrs against chloroquine-resistant Plasmodium falciparum FcB1 in human blood by [3H]hypoxanthine uptake. The class given is functional, organism-based.

Broadly, the IC50 is the concentration needed to halve the response being measured. A lower IC50 goes with greater potency. Consider `COc1cc2c(cc1O)[C@@H](C)[C@H](c1ccccc1)O2` [OBTUSAFURAN], for which half-maximal inhibition (IC50) was put at 8.7 µM. The same measure, in the same setting: the value for `COc1cc(-c2coc3cc(O)ccc3c2=O)ccc1O` was 6.8 µM. Still for that read-out and setting: the value for `O=C(/C=C/c1ccc(O)cc1)c1ccc(O)cc1O` [ISOLIQUIRITIGENIN] was 7.8 µM. Turning to `COc1cc(CCCc2cccc(O)c2)c(OC)cc1O`, the result was inactive.

Regarding `COC1=CC(=O)C(O)=CC12CCCc1cc(O)ccc12` (stereo not drawn), the outcome was inactive. As for `COc1cc(-c2cc3ccc(O)cc3oc2=O)c(O)cc1O`, the result was inactive. `C=C[C@@H](C1=CC(=O)C(OC)=CC1=O)c1ccccc1` came in with a 50% inhibitory concentration (IC50) of 5.8 µM. Consider `COc1cc(O)c([C@@H]2COc3cc(O)ccc3C2=O)cc1OC`, for which the result was inactive.
